Experiment [1] has as its target T1, hSP-A (human SP-A, isolated from BAL of PAP patient) (Homo sapiens, UniProt Q8IWL1+Q8IWL2).
T1 construct: Human PAP patient, BAL isolated; from tissue; host or cells: bronchoalveolar lavage fluid of a patient with pulmonary alveolar proteinosis
Description: Microscale thermophoresis (MST) binding to hSP-A. Also noted: Response Amplitude: unit not given here. The following applies: for binding of hSP-A in the absence or presence of low calcium concentrations: 0 and 2.5 mM calcium (Fig. 3A-C); for Response Amplitude / Kd: hSP-A. On the procedure: (§1) Human-isolated and recombinant proteins were labeled using the Monolith Protein Labeling Kit RED-NHS according to the manufacturer’s instructions. This kit reagent reacts with lysine residues present in the sequence of the protein, as the dye carries a reactive NHS-ester group. Briefly, as all the proteins were in a Tris buffer solution, the buffer solution was exchanged to a HEPES-based buffer with the A-Column provided in the kit. Then, 10 µM solution of protein was incubated with a threefold excess of dye in 100 µL for 30 min at room temperature protected from light. The labeled protein was separated from the free dye using the B-Column provided in the kit. The concentration of the labeled protein {c(M) = [A205 − (A650 × 0.19)]/[31 × MWprotein]) and the degree of labeling [DOL = A650/(195.000 M^−1cm^−1 × c(M)] were calculated according to the manufacturer’s instruction, measuring absorption at 205 nm (for the protein) and 650 nm (for the dye).
(§2) Thermophoresis is the phenomenon of movement of particles along a temperature gradient. Solvated molecules move from higher to lower temperature. This movement or depletion of molecules from the heat is quantified by the Soret coefficient ST: Chot/Ccold = exp (−STΔT). The depletion of molecules depends on the interface between molecule and solvent. Therefore, thermophoresis monitors changes in size, charge, and solvation entropy of molecules. In this regard, the thermophoresis or movement of a protein is different from a protein-ligand complex ([35]). Microscale or miniaturized thermophoresis allows to monitor molecular interaction in only a few microliters. For this method, the fluorescently labeled protein is mixed with a decreasing concentration of a ligand in 16 glass capillaries. The initial fluorescence is measured (Fcold), then an infrared (IR) laser beam is switched on and focused on the center of the first capillary, where the temperature gradient is created from the center to the walls of the capillary. At the same time, a dichroic mirror allows fluorescence from the labeled protein to be monitored (Fhot). The rate of fluorescence change is related to the amount of protein-ligand complex form, which depends on the ligand concentration, due to changes in size, charge, or hydration shell of the protein-ligand complex. The dissociation constant KD is calculated from the binding curve derived by plotting the normalized fluorescence (FNorm) at a given time after the start of the thermophoresis against the respective ligand concentration ([33], [34], [36]).
(§3) Samples were measured in a Monolith NT.115, using Premium Capillaries (MO-K025) and Monolith Protein labeling kit RED-NHS (MO-L011) all from NanoTemper Technologies (Munich, Germany). Solutions of a 3X concentrated MST buffer (15 mM Tris, 300 mM NaCl, 0.3% Tween 20, 15 mM CaCl2, pH 7.4), sugars (270 mM) or GAG (30 µM) solution, and protein solution (27 nM) were prepared separately. When a different concentration was used, a threefold concentration of the solution was prepared. Afterward, sugars and GAG solutions were diluted 1:2 with water in a series of 16 steps. For the measurement, 3 µL of each prepared component (3 µL MST buffer, 3 µL GAG solution, and 3 µL labeled protein) was mixed, centrifuged shortly to eliminate precipitates, and loaded into a glass capillary. The final concentrations of the sugars were thus between 90 –and 0.00275 mM or GAGs 10 and 0.000305 µM for GAGs, respectively. The 16 capillaries were loaded in the Monolith NT.115 and measurements were performed with a 40% LED power and medium MST power at 25°C.
(§4) Every set of 16 capillaries was prepared in 3–6 replicates (technical replicates) and measured. The replicate measures of every capillary were plotted against concentration and outliers were excluded, using the MO Affinity Analysis 3 v01 software (NanoTemper Technologies, Munich, Germany). […]
Background: MST reads how a fluorescent partner responds to local heating, with and without ligand.

Experiment [2] addresses T2, recSP-A1 (human recombinant SP-A1) (Homo sapiens, UniProt Q8IWL2).
T2 construct: purchased Aviva Systems Biology OPCD07130; host or cells: prokaryotic expression
Put plainly: Microscale thermophoresis (MST) binding to recSP-A1. The following applies: for Kd: recSP-A1, GAGs from Fig. 2, read-out: Kd (±KD Confidence); for Response Amplitude: recSP-A1, MST, GAGs from Fig. 2. Here is the method:
as §1, §2, §3, §4

The target in experiment [3] is T3, rhSP-D (human recombinant SP-D) (Homo sapiens, UniProt P35247).
T3 construct: host or cells: CHO cells
T3 sequence (P35247 21-375): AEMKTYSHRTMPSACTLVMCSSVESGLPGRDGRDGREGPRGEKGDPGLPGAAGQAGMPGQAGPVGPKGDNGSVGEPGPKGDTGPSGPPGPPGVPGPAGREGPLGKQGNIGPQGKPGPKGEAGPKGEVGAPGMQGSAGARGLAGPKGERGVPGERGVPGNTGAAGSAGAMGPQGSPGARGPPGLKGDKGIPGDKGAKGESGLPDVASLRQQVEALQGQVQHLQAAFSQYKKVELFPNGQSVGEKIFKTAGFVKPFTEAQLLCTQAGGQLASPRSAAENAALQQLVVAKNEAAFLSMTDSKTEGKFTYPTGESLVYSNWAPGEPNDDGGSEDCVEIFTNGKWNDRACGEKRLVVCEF
Description: Microscale thermophoresis (MST) binding to rhSP-D. Also noted: Response Amplitude: unit not given here. Here is the method: as §1, §2, §3, §4

The target of experiment [4] is T4, recSP-A2 (human recombinant SP-A2) (Homo sapiens, UniProt Q8IWL1).
T4 construct: purchased Aviva Systems Biology OPCD07132; host or cells: prokaryotic expression
Description: Microscale thermophoresis (MST) binding to recSP-A2. The following applies: for Kd: recSP-A2, GAGs from Fig. 2, read-out: Kd (±KD Confidence); for Response Amplitude: recSP-A2, MST, GAGs from Fig. 2. Here is the method: as §1, §2, §3, §4

Experiment [5] has as its target T5, hSP-D (human SP-D, isolated from BAL of PAP patient) (Homo sapiens, UniProt P35247).
T5 construct: hSP-D; 0.6 µM; Human PAP patient, BAL isolated; from tissue; host or cells: bronchoalveolar lavage fluid of a patient with pulmonary alveolar proteinosis
T5 sequence (P35247 21-375): T3 sequence (P35247 21-375)
Put plainly: Microscale thermophoresis (MST) binding to hSP-D. The following applies: for Kd: GAGs from Fig. 2, read-out: Kd (±KD Confidence); for Response Amplitude: MST, GAGs from Fig. 2. Here is the method:
as §1, §2, §3, §4

[6] abbreviates: GAGs from Fig. 2, read-out: Kd (±KD Confidence).

Where two headings read alike, the source gives them in different places.

By Kd is commonly meant the free concentration of one partner at which half of the binding sites on the other are occupied at equilibrium, for simple one-to-one binding.

T4 sequence (Q8IWL1 21-248): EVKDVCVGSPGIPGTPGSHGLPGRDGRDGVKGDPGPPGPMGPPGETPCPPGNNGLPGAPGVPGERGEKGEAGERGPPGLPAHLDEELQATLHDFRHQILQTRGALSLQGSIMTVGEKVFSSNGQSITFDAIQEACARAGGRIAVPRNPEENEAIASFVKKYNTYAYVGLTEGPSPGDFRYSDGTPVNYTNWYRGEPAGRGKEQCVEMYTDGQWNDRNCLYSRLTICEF
T1 sequence (Q8IWL2 21-248): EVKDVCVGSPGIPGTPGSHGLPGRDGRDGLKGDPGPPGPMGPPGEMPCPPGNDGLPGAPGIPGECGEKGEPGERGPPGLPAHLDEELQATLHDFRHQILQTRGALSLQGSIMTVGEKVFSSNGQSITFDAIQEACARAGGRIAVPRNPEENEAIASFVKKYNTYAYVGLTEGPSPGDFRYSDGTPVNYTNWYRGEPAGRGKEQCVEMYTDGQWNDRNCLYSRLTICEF
T1 sequence (Q8IWL1 21-248): as the sequence (Q8IWL1 21-248) above
T2 sequence (Q8IWL2 21-248): as the sequence (Q8IWL2 21-248) above

As for chondroitin sulfate sodium salt [CS], the “binding of hSP-A in the absence or presence of low calcium concentrations” value (“binding … of low calcium concentrations” for short) in experiment [1] (MST) is recorded as “binds”. For the same substance, the “Response Amplitude” value in experiment [1] (0 mM Ca^2+) is 7.16; in experiment [1] (2.5 mM Ca^2+) it was 13.45; in experiment [1] (5 mM Ca^2+) it was 8.07; in experiment [1] (10 mM Ca^2+), 6.89; in experiment [1] (MST, GAGs from Fig. 2) it was 8.37; in experiment [2], 17.02. The “Response Amplitude” value in experiment [3] (0 mM Ca^2+) is on record as 16.10; in experiment [3] (2.5 mM Ca^2+), 10.05; in experiment [3] (5 mM Ca^2+), 10.83; in experiment [3] (10 mM Ca^2+) it was 21.36; in experiment [3] (MST, GAGs from Fig. 2), 23.54; in experiment [4], 31.90. Moreover, the “Response Amplitude” value in experiment [5] was 3.74. Further, the Kd in experiment [1] (0 mM Ca^2+, read-out: KD) came to 0.999 nM; in experiment [1] (5 mM Ca^2+, read-out: KD), 7.38 nM; in experiment [1] (10 mM Ca^2+, read-out: KD) it was 5.91 nM; in experiment [1] (setting [6]), 225 nM; in experiment [2] it was 80.1 nM; in experiment [3] (0 mM Ca^2+, read-out: KD), 17600 nM. The Kd in experiment [3] (2.5 mM Ca^2+, read-out: KD) stood at 152 nM; in experiment [3] (5 mM Ca^2+, read-out: KD) it was 97.1 nM; in experiment [3] (10 mM Ca^2+, read-out: KD), 131 nM; in experiment [3] (setting [6]), 0.808 nM; in experiment [4], 55.2 nM; in experiment [5] it was 5820 nM.

For the substance heparan sulfate sodium [HS], the “binding … of low calcium concentrations” value in experiment [1] (MST) is recorded as “binds”. The “Response Amplitude” value in experiment [1] (0 mM Ca^2+) came to 3.61; in experiment [1] (2.5 mM Ca^2+), 9.27; in experiment [1] (5 mM Ca^2+), 7.51; in experiment [1] (10 mM Ca^2+), 2.79; in experiment [1] (MST, GAGs from Fig. 2), 11.92; in experiment [2] it was 15.51. Besides, the “Response Amplitude” value in experiment [3] (0 mM Ca^2+) was determined as 12.04; in experiment [3] (2.5 mM Ca^2+), 33.47; in experiment [3] (5 mM Ca^2+), 6.29; in experiment [3] (10 mM Ca^2+), 15.22; in experiment [3] (MST, GAGs from Fig. 2) it was 3.55; in experiment [4], 15.59. The “Response Amplitude” value in experiment [5] was found to be 3.03. Also, the dissociation constant (Kd) in experiment [1] (0 mM Ca^2+, read-out: KD) was 3.22 nM; in experiment [1] (2.5 mM Ca^2+, read-out: KD), 0.188 nM; in experiment [1] (5 mM Ca^2+, read-out: KD), 3.74 nM; in experiment [1] (10 mM Ca^2+, read-out: KD), 375 nM; in experiment [1] (setting [6]), 23.3 nM; in experiment [2] it was 269 nM. The Kd stood at 735 nM in experiment [3] (0 mM Ca^2+, read-out: KD); 7.44 nM in experiment [3] (2.5 mM Ca^2+, read-out: KD); 431 nM in experiment [3] (5 mM Ca^2+, read-out: KD); 0.688 nM in experiment [3] (10 mM Ca^2+, read-out: KD); 287 nM in experiment [3] (setting [6]); 143 nM in experiment [4]. Further, in experiment [5], the Kd is 5640 nM.

Consider hyaluronic acid sodium salt [HA], for which the “binding … of low calcium concentrations” value in experiment [1] (MST) is reported as “not able to bind”. Also, the “Response Amplitude” value in experiment [1] (5 mM Ca^2+) is 7.31; in experiment [1] (10 mM Ca^2+) it was 3.65; in experiment [1] (MST, GAGs from Fig. 2), 12.93; in experiment [2], 17.13; in experiment [3] (5 mM Ca^2+) it was 5.33; in experiment [3] (10 mM Ca^2+) it was 3.25. Also, the “Response Amplitude” value worked out at 9.67 in experiment [3] (MST, GAGs from Fig. 2); 19.28 in experiment [4]; 3.45 in experiment [5]. Also, the Kd was found to be 2.91 nM in experiment [1] (5 mM Ca^2+, read-out: KD); 54.6 nM in experiment [1] (10 mM Ca^2+, read-out: KD); 12.2 nM in experiment [1] (setting [6]); 1010 nM in experiment [2]; 41.9 nM in experiment [3] (5 mM Ca^2+, read-out: KD); 31.1 nM in experiment [3] (10 mM Ca^2+, read-out: KD). For the same substance, the Kd was determined as 22.1 nM in experiment [3] (setting [6]), 1870 nM in experiment [4] and 2190 nM in experiment [5].

The values above are taken from paper PMC11380953, “Multivalent, calcium-independent binding of surfactant protein A and D to sulfated glycosaminoglycans of the alveolar epithelial glycocalyx” (American Journal of Physiology - Lung Cellular and …, 2024).
